The results in this text go back to patent US4959378A, “Aminopyridinylaminophenol compounds useful as topical antiinflammatory agents for the treatment of skin disorders” (Hoechst-Roussel Pharmaceuticals Inc., priority 1989, dated 1990).

Assay [1] has as its system naja naja (snake venom) phospholipase A2 -induced paw edema. Description: Phospholipase A2-induced Paw Edema (PIPE). The assay is classed as in vivo, rat. The following applies: for PIPE (0.1 M), difference in edema vs. control: 0.1M test compound injected with PLA2 (3 units/paw) subplantar, rat left hindpaw, two hours post administration. The protocol:
Phospholipase A2 -induced Paw Edema (PIPE)
The ability of compounds to prevent naja naja (snake venom) phospholipase A2 -induced paw edema in male Wistar rates (100-125 g) was measured. PLA2 (3 units/paw) alone or with 0.1M of the test compound was injected in the subplantar region of the rat left hindpaw. Immediately subsequent to the injection and at two hours post administration the paw was immersed in a mercury bath, and paw displacement was measured on a recorder via a transducer. […] See Giessler, A. J. et al., Agents and Actions, Vol. 10, Trends in Inflammation Research (1981), p. 195.

A further assay addresses T1, porcine pancreatic PLA2 (Sus scrofa, UniProt P00592).
T1 construct: from tissue; host or cells: porcine pancreas
Description: In Vitro Phospholipase A2 Assay (PLA2). The assay is classed as biochemical. Particulars: 0.01 M test compound; porcine pancreatic PLA2 3.2 units, pH 8.0, 37° C.; read-out: PLA2 (0.01 M), difference vs. control. As for the experimental part: In Vitro Phospholipase A2 Assay (PLA2)
The ability of a compound to modulate PLA2 activity (cleavage of ^14 C-dipalmitoyl phosphotidylcholine at the 2-position to ^14 C-palmitic acid) was quantitated in this assay. The reaction mixture contained Tris buffer (25 mM), pH 8.0, calcium chloride (2.0 mM), bovine serum albumin (0.5 mg), dipalmitoyl phosphotidylcholine (8×10^-5M), (^14 C-palmitoyl)dipalmitoyl phosphotidylcholine (6×10^3cpm), porcine pancreatic PLA2 (3.2 units) and the test compound. The reaction was run at 37° C. in a shaking incubator. The reaction was quenched and an internal standard was added in order to determine sample recovery. The samples were loaded onto C18 columns, eluted with ethanol, and the radioactivity was then measured. […] See Feyen, J. H. M., et al., Journal of Chromatography 259 (1983), pp. 338-340.

T1 sequence (P00592 23-146): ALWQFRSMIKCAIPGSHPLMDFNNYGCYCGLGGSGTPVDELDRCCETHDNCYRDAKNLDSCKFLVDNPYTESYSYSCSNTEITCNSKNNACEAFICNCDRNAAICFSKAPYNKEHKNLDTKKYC

With `C[C@]12CCC(=O)C=C1CC[C@@H]1[C@@H]2[C@@H](O)C[C@@]2(C)[C@H]1CC[C@]2(O)C(=O)CO` [hydrocortisone, reference compound], the “ED50 (PIPE standard)” value in assay [1] (standard, subplantar injection with PLA2, male Wistar rats) stood at 0.46 M. As for `Nc1ccncc1Nc1cccc(O)c1` [3-[(4-Amino-3-pyridinyl)amino]phenol], the “PIPE (0.1 M), difference in edema vs. control” value in assay [1] is listed as -52%. Besides, the inhibition at 10000 µM on porcine pancreatic PLA2 amounted to 35%.

For the compound `Nc1ccncc1Nc1ccc(O)cc1.O=C(O)/C=C\C(=O)O` [4-[(4-Amino-3-pyridinyl)amino]phenol maleate], the “PIPE (0.1 M), difference in edema vs. control” value in assay [1] is given as -62%. Further, the inhibition at 10000 µM at porcine pancreatic PLA2 amounted to 35%.
